# Values of other authors as cited in patent publication US20090291122A1, “Wound Care Treatment Product” (SANO MEDICAL bvba, priority 2006, published 2009).
# System: E-coli
compound,measurement,value
O=[O+][O-] [Ozone],speed of killing E-coli relative to chlorine,3125 times faster than chlorine
